A word on the IC50: it is the concentration that gives 50% inhibition. Lower therefore signals inhibition by little substance. By CC50 is commonly meant the concentration at which the toxic effect on the cells reaches its halfway point. As usually defined, the melting point is the temperature, or range, at which the solid turns liquid.

Data set [1] has as its system HeLa cells. The data set is described as follows: Combination index (CI) of topotecan and TDP1 inhibitors, CompuSyn. Format: cell-based, human. The method, then: For HeLa cells, we calculated the combination index (CI), the parameter that is used to determine the degree of drug interaction. The combination index (CI) values for the different concentrations (Supplementary Figure S3) of topotecan and TDP1 inhibitors were less than one, and for some compounds less than 0.1 (Supplementary Table S1). This indicates a strong synergistic effect of topotecan and […]. The CI values were calculated with the CompuSyn version 1.0 software.
(§1) The cytotoxicity of the compounds to HeLa (human cervical cancer) and HEK293A (human embryonic kidney) cell lines was examined using the EZ4U Cell Proliferation and Cytotoxicity Assay (Biomedica, Vienna, Austria), according to the manufacturer’s protocols. The cells were grown in DMEM (Dulbecco’s Modified Eagle’s Medium) with 50 IU/mL penicillin, 50 μg/mL streptomycin (MP Biomedicals, Santa Ana, CA, USA), and 10% of fetal bovine serum (Biolot, St. Petersburg, Russia) in a 5% CO2 atmosphere. After formation of a 30–50%-monolayer, the tested compounds were added to the medium. The volume of the added reagents was 1/100 of the total volume of the culture medium, and the amount of DMSO (Sigma, St. Louis, MO, USA) was 1% of the final volume. The cell culture was monitored for 3 days. To assess the influence of the inhibitors on the cytotoxic effect of topotecan (Selleck Chemicals, Houston, TX, USA), 50% cytotoxic concentrations of topotecan and of each inhibitor were determined to attain a defined single-agent effect. Then, a minimum of two independent tests were performed with each inhibitor in combination with topotecan. When using a combination of drugs, TDP1 inhibitors were first added, then topotecan was added immediately (within 10–15 min).

The subject of a further data set is HEK293A cells. The data set is described as follows: Influence of compounds on topotecan cytotoxicity, HEK293A. In kind it is cell-based, human. As for the experimental part: (§2) Then, we tested the ability of the adamantane–monoterpenoid derivatives to sensitize cells to the action of topotecan. For this, we chose a low-toxic concentration 20 μM and varied the concentrations of topotecan (Supplementary Figure S3).
(§3) In the reverse experiment, when the concentrations of the compounds were varied with 30 nM topotecan (in the experiments with HEK293A cells) or 3 μM topotecan (in the experiments with HeLa cells), respectively, a noticeable synergistic effect on HeLa cells was already observed at low concentrations of TDP1 inhibitors (1 and 5 μM) (Supplementary Figure S4). Given that the IC50 values for these compounds are >5 μM, this also indicates the presence of other targets in addition to TDP1.
as §1

The target of the next data set is TDP1 (Homo sapiens, UniProt Q9NUW8). The data set is described as follows: TDP1 activity, real-time fluorescence biosensor assay. Format: biochemical.
Chain of TDP1 (Q9NUW8 whole entry): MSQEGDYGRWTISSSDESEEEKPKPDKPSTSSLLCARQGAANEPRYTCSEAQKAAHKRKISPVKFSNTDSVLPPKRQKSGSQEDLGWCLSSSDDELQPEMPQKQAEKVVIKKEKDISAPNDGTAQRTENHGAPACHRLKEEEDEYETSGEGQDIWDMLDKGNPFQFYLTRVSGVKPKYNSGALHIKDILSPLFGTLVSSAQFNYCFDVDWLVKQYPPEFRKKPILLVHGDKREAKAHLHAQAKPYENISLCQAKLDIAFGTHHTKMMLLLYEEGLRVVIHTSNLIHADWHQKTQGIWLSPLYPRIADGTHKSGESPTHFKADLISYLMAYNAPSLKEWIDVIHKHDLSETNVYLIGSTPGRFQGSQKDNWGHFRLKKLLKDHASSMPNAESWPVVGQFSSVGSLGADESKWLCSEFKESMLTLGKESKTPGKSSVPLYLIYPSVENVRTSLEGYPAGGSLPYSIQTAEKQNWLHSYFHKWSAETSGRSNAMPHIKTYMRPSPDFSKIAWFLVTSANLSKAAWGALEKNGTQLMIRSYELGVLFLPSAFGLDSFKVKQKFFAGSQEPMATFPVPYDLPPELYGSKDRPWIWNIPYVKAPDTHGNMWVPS
Data set [2] is described as follows: Intrinsic cytotoxicity, EZ4U assay, HEK293A. The note with it: human, HEK293A cells, compound alone. Format: cell-based. The method, then: (§4) Next, we tested the compounds’ intrinsic toxicity against cervical cancer HeLa cells and non-cancerous HEK293A immortalized human embryonic kidney cells using the EZ4U assay format.
as §1

A short description of data set [3]: Intrinsic cytotoxicity, EZ4U assay, HeLa. Format: cell-based, human. The note with it: human, HeLa cells, compound alone, 3 days. As for the experimental part:
as §4, §1

Data set [4] has as its system HeLa cells. The data set is described as follows: Intrinsic cytotoxicity, EZ4U assay, HeLa. The note with it: HeLa and HEK293A cells. In kind it is cell-based, human. As for the experimental part:
as §4, §1

A short description of data set [5]: Influence of compounds on topotecan cytotoxicity, HEK293A. Format: cell-based, human. The conditions noted are these: human, HEK293A cells; topotecan alone; read-out: Tpc CC50 HEK293A. The method, then: as §2, §3, §1
For data set [6], the system named is HeLa cells. The data set is described as follows: Influence of compounds on topotecan cytotoxicity, HeLa. In kind it is cell-based. The note with it: Homo sapiens, topotecan alone, read-out: Tpc CC50 HeLa. As for the experimental part:
as §2, §3
The cytotoxicity of the compounds to HeLa (human cervical cancer) and HEK293A (human embryonic kidney) cell lines was examined using the EZ4U Cell Proliferation and Cytotoxicity Assay (Biomedica, Vienna, Austria), according to the manufacturer’s protocols. […] The cell culture was monitored for 3 days. To assess the influence of the inhibitors on the cytotoxic effect of topotecan (Selleck Chemicals, Houston, TX, USA), 50% cytotoxic concentrations of topotecan and of each inhibitor were determined to attain a defined single-agent effect. […]

“Also recorded” adds a separate entry of the source.

`CC1=CC[C@H](CCSc2nc(C34CC5CC(CC(C5)C3)C4)n[nH]2)C1(C)C` [14a, 3-(Adamantan-1-yl)-5-((2-((R)-2,2,3-trimethylcyclopent-3-en-1-yl)ethyl)thio)-1H-1,2,4-triazole] displayed a melting point of 113.5 °C. Also, the Effect with HeLa cells [1] (Tpc 0.3 µM + 20 µM compound) came out at 0.17. Also, the Effect in the data set on HeLa cells [1] (Tpc 0.6 µM + 20 µM compound) is 0.47. Further, in the data set with HeLa cells [1] (Tpc 2.5 µM + 20 µM compound), the CI is on record as 0.4461 and the Effect is on record as 0.92. In the data set on HeLa cells [1] (Tpc 5.0 µM + 20 µM compound), the CI amounted to 0.7177 and the Effect came out at 0.96. Moreover, in the data set on HeLa cells [1] (Tpc […] + 20 µM compound), the CI came out at 0.2872 and the Effect amounted to 0.81. In addition, the “effect on the action of topotecan on HEK293A cells (in words)” value in the data set with HEK293A cells is on record as “protected HEK293A cells from the action of topotecan”. The compound further came in with an IC50 against TDP1 of 5.5 ± 1.5 µM. Moreover, in data set [2], the cytotoxic concentration (CC50) at 3 days came to 47 ± 3 µM. Also, the CC50 at 3 days in data set [3] was 53 ± 8 µM. In addition, the “intrinsic toxicity (in words)” value in the data set with HeLa cells [4] is recorded as “moderate toxicity”.
Compound `CC1=CC[C@@H](CCSc2nc(C34CC5CC(CC(C5)C3)C4)n[nH]2)C1(C)C` [14b, 3-(Adamantan-1-yl)-5-((2-((S)-2,2,3-trimethylcyclopent-3-en-1-yl)ethyl)thio)-1H-1,2,4-triazole] showed a melting point of 111.8 to 112.4 °C. Further, in the data set with HeLa cells [1] (Tpc 0.3 µM + 20 µM compound), the CI is on record as 0.00419 and the Effect was 0.94. In the data set on HeLa cells [1] (Tpc 0.5 µM + 20 µM compound), the CI turned out to be 0.00165 and the Effect turned out to be 0.97. Besides, in the data set with HeLa cells [1] (Tpc 1.0 µM + 20 µM compound), the CI came out at 0.00117 and the Effect was 0.98. Further, in the data set on HeLa cells [1] (Tpc 2.0 µM + 20 µM compound), the CI amounted to 0.00166 and the Effect was 0.98. Moreover, in the data set on HeLa cells [1] (Tpc 4.0 µM + 20 µM compound), the CI is given as 0.00113 and the Effect is given as 0.99. On TDP1, the IC50 came to 6.1 ± 0.1 µM. Besides, the CC50 at 3 days in [2] was found to be 50 ± 3 µM. Also, the CC50 at 3 days in data set [3] came out at 54 ± 7 µM. Further, the “intrinsic toxicity (in words)” value in the data set with HeLa cells [4] was “moderate toxicity”.
On to `CC1=CC[C@H](CC(=O)Nc2nnc(C34CC5CC(CC(C5)C3)C4)s2)C1(C)C` [15a, N-(5-(Adamantan-1-yl)-1,3,4-thiadiazol-2-yl)-2-((R)-2,2,3-trimethylcyclopent-3-en-1-yl)acetamide], for which the melting point fell in the range of 209.2 to 210.1 °C. For the same compound, the Effect with HeLa cells [1] (Tpc 0.3 µM + 50 µM compound) is 0.27. Further, in the data set on HeLa cells [1] (Tpc 0.5 µM + 50 µM compound), the CI was determined as 0.07887 and the Effect is reported as 0.53. In the data set with HeLa cells [1] (Tpc 1.0 µM + 50 µM compound), the CI turned out to be 0.06365 and the Effect came to 0.73. Also, in the data set with HeLa cells [1] (Tpc 2.0 µM + 50 µM compound), the CI came out at 0.06893 and the Effect was found to be 0.83. In addition, in the data set on HeLa cells [1] (Tpc 4.0 µM + 50 µM compound), the CI is on record as 0.07307 and the Effect is listed as 0.9. Half-maximal inhibition at TDP1 (IC50) required 6.1 ± 2.6 µM. Further, the CC50 at 3 days in [2] was over 100 µM. Further, in [3], the CC50 at 3 days is over 100 µM.
Turning to `CC1=CC[C@@H](CC(=O)Nc2nnc(C34CC5CC(CC(C5)C3)C4)s2)C1(C)C` [15b, N-(5-(Adamantan-1-yl)-1,3,4-thiadiazol-2-yl)-2-((S)-2,2,3-trimethylcyclopent-3-en-1-yl)acetamide], the melting point stood at 210.9 °C. Besides, the Effect in the data set with HeLa cells [1] (Tpc 0.3 µM + 50 µM compound) stood at 0.48. Further, in the data set on HeLa cells [1] (Tpc 0.5 µM + 50 µM compound), the CI is reported as 0.05563 and the Effect is 0.69. In the data set on HeLa cells [1] (Tpc 1.0 µM + 50 µM compound), the CI amounted to 0.04653 and the Effect is 0.84. In the data set with HeLa cells [1] (Tpc 2.0 µM + 50 µM compound), the CI stood at 0.05382 and the Effect was 0.9. Also, in the data set with HeLa cells [1] (Tpc 4.0 µM + 50 µM compound), the CI turned out to be 0.09564 and the Effect amounted to 0.91. In addition, in the data set with HEK293A cells, the “effect on the action of topotecan on HEK293A cells (in words)” value is reported as “protected HEK293A cells from the action of topotecan”. Further, the IC50 against TDP1 was about 5 µM. Also, the CC50 at 3 days in [2] was over 100 µM. Moreover, in data set [3], the CC50 at 3 days is over 100 µM.
As for `CC[C@@]1(O)C(=O)OCc2c1cc1n(c2=O)Cc2cc3c(CN(C)C)c(O)ccc3nc2-1` [Tpc, topotecan], the CC50 at 3 days in data set [5] was found to be 0.066 ± 0.028 µM. Further, in the data set with HeLa cells [6], the CC50 was 4 ± 1.3 µM.
In the case of `CC1(C)[C@@H]2CC[C@@]1(C(=O)Nc1nnc(C34CC5CC(CC(C5)C3)C4)s1)C(=O)C2` [compound 16, (1S,4R)-N-(5-(Adamantan-1-yl)-1,3,4-thiadiazol-2-yl)-7,7-dimethyl-2-oxobicyclo[2.2.1]heptane-1-carboxamide], the melting point stood at 269.6 °C. Also, the Effect in the data set with HeLa cells [1] (Tpc 0.3 µM + 20 µM compound) is recorded as 0.035. Besides, the Effect in the data set with HeLa cells [1] (Tpc 0.6 µM + 20 µM compound) came out at 0.1. For the same compound, in the data set with HeLa cells [1] (Tpc 2.5 µM + 20 µM compound), the CI was determined as 0.5114 and the Effect is reported as 0.75. In addition, in the data set on HeLa cells [1] (Tpc 5.0 µM + 20 µM compound), the CI is reported as 0.8721 and the Effect is reported as 0.85. Besides, in the data set with HeLa cells [1] (Tpc […] + 20 µM compound), the Effect is 0.36. At TDP1, the IC50 is over 30 µM and the “anti-TDP1 activity (in words)” value is “not exhibiting anti-TDP1 activity; also recorded: ineffective”. Besides, the CC50 at 3 days in [2] came to 23 ± 10 µM. Moreover, the CC50 at 3 days in data set [3] is 20 ± 8 µM. Besides, the “intrinsic toxicity (in words)” value with HeLa cells [4] is “moderate toxicity”.
Turning to `CC1(C)[C@@H]2CC[C@@]1(CS(=O)(=O)Nc1nnc(C34CC5CC(CC(C5)C3)C4)s1)C(=O)C2` [compound 17, N-(5-(Adamantan-1-yl)-1,3,4-thiadiazol-2-yl)-1-((1S,4R)-7,7-dimethyl-2-oxobicyclo[2.2.1]heptan-1-yl)methanesulfonamide], the melting point fell in the range of 200.3 to 200.5 °C. The Effect with HeLa cells [1] (Tpc 0.3 µM + 20 µM compound) was 1.0E-4. Also, in the data set on HeLa cells [1] (Tpc 0.6 µM + 20 µM compound), the Effect was 0.02. For the same compound, in the data set on HeLa cells [1] (Tpc 2.5 µM + 20 µM compound), the CI was 0.7924 and the Effect is on record as 0.6. In the data set with HeLa cells [1] (Tpc 5.0 µM + 20 µM compound), the CI is 1.176 and the Effect amounted to 0.81. Further, the Effect with HeLa cells [1] (Tpc […] + 20 µM compound) amounted to 0.25. Besides, on TDP1, the IC50 was over 30 µM and the “anti-TDP1 activity (in words)” value is recorded as “not exhibiting anti-TDP1 activity; also recorded: ineffective”. Further, the CC50 at 3 days in [2] was over 100 µM. Also, in data set [3], the CC50 at 3 days was 100 ± 20 µM.

For the origin of these results see PMC9182348, “Adamantane-Monoterpenoid Conjugates Linked via Heterocyclic Linkers Enhance the Cytotoxic Effect of Topotecan” (Molecules, 2022).
